ChEMBL document CHEMBL5143553, “Structure-activity relationship and mechanistic study on guggulsterone derivatives; Discovery of new anti-pancreatic cancer candidate” (Bioorg Med Chem, 2022)
Active and inactive are the calls of the source. The rule behind the calls is not given here.

Experiments:
PANC-1 [1] = test: Preferential cytotoxic activity against human PANC-1 cells in Dulbecco's modified Eagle's medium; type: functional, cell-based
PANC-1 [2] = test: Preferential cytotoxic activity against human PANC-1 cells in nutrient-deprived medium; type: functional
[3] = Selectivity index, ratio of PC50 for Preferential cytotoxic activity against human PANC-1 cells in Dulbecco's modified Eagle's medium to PC50 for Preferential cytotoxic activity against human PANC-1 cells in nutrient-deprived medium; type: functional
PANC-1 [4] = test: Inhibition of colony formation in human PANC-1 cells in DMEM medium at 3 uM incubated for 10 days relative to control; type: functional; details: PANC-1, 240 h, time 10 day
PANC-1 [5] = test: Effect on mTOR protein expression in human PANC-1 cells in NDM medium at 1 to 10 uM incubated for 6 hrs by Western blot analysis; type: functional, cell-based; details: dose 1-10 µM
PANC-1 [6] = test: Effect on Akt protein expression in human PANC-1 cells in DMEM medium at 1 to 10 uM incubated for 6 hrs by Western blot analysis; type: functional, cell-based; details: dose 1-10 µM
PANC-1 [7] = test: Induction of morphological changes in human PANC-1 cells in nutrient-deprived medium assessed as induction of leakage of intracellular components into the media at 10 uM within 24 hrs by Cyto-smart Lux2 live cell imaging based method; type: functional
PANC-1 [8] = test: Induction of cell death in human PANC-1 cells in nutrient-deprived medium at 10 uM after 24 hrs by ethidium bromide-acridine orange double-staining assay; type: functional, cell-based
PANC-1 [9] = test: Inhibition of colony formation in human PANC-1 cells in DMEM medium at 1 uM incubated for 10 days relative to control; type: functional; details: PANC-1, 240 h, time 10 day
PANC-1 [10] = test: Inhibition of cell migration in human PANC-1 cells in DMEM medium assessed as wound area level at 5 uM after 48 hrs by wound-healing assay relative to initial area (reference value: 23%); type: functional; parameters: scale not given: the % may be the effect or the level left
[11] = target: T1, Serine/threonine-protein kinase AKT (Homo sapiens) (UniProt P31751+Q9Y243+P31749); test: Inhibition of Akt S473 phosphorylation in human PANC-1 cells in DMEM medium at 10 uM incubated for 6 hrs by Western blot analysis; type: cell-based
T1 sequence (P31749 whole entry, looked up): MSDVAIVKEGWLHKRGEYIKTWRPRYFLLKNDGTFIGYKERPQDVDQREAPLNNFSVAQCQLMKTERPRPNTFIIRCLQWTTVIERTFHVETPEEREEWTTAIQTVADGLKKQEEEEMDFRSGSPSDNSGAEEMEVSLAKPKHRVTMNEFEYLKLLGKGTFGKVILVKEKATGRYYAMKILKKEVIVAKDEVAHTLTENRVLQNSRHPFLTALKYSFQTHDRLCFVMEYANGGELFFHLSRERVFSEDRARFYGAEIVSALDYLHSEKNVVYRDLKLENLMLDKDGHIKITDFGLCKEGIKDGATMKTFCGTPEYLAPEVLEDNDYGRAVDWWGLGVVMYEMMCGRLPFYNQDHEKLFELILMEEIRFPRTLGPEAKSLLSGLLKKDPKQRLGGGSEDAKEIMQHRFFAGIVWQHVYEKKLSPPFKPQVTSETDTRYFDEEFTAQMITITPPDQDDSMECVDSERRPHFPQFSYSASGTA
T1 sequence (P31751 whole entry, looked up): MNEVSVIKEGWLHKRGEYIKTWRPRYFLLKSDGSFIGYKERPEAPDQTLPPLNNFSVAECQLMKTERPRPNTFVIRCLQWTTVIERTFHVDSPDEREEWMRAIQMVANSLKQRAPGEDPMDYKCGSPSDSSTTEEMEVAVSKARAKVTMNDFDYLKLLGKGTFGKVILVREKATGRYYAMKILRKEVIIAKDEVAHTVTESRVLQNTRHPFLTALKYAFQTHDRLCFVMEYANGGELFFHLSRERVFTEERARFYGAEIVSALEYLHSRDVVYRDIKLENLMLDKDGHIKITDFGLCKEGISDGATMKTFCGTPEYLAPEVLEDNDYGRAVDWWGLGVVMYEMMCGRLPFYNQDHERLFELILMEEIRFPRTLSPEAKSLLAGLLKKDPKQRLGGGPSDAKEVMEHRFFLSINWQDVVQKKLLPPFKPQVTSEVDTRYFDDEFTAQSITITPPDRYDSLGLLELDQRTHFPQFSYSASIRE
T1 sequence (Q9Y243 whole entry, looked up): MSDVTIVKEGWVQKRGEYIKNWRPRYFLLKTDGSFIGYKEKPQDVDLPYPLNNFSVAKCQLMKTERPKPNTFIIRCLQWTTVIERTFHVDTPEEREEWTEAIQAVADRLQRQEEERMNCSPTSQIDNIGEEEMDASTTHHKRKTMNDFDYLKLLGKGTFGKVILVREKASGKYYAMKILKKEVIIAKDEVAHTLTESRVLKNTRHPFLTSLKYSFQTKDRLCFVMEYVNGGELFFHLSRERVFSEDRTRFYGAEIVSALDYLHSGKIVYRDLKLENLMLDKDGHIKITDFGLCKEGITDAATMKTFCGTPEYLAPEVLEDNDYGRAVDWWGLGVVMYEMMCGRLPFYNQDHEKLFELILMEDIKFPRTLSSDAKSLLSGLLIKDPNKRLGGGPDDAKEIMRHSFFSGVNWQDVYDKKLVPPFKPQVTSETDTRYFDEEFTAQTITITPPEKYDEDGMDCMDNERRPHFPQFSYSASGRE

PANC-1 [12] = test: Inhibition of cell migration in human PANC-1 cells in DMEM medium assessed as wound area level at 3 uM after 24 hrs by wound-healing assay relative to initial area (reference value: 55%); type: functional; parameters: scale not given: the % may be the effect or the level left
PANC-1 [13] = test: Inhibition of cell migration in human PANC-1 cells in DMEM medium assessed as wound area level at 3 uM after 48 hrs by wound-healing assay relative to initial area (reference value: 23%); type: functional; parameters: scale not given: the % may be the effect or the level left
[14] = target: T1, Serine/threonine-protein kinase AKT (Homo sapiens); test: Inhibition of Akt S473 phosphorylation in human PANC-1 cells in NDM medium at 2.5 to 10 uM incubated for 6 hrs by Western blot analysis; type: cell-based; details: dose 2.5-10 µM
PANC-1 [15] = test: Induction of morphological changes in human PANC-1 cells in nutrient-deprived medium assessed as induction of cell rounding and shrinkage at 10 uM within 24 hrs by Cyto-smart Lux2 live cell imaging based method; type: functional
PANC-1 [16] = test: Inhibition of cell migration in human PANC-1 cells in DMEM medium assessed as wound area level at 5 uM after 24 hrs by wound-healing assay relative to initial area (reference value: 55%); type: functional; parameters: scale not given: the % may be the effect or the level left
PANC-1 [17] = test: Effect on mTOR protein expression in human PANC-1 cells in DMEM medium at 1 to 10 uM incubated for 6 hrs by Western blot analysis; type: functional, cell-based; details: dose 1-10 µM
PANC-1 [18] = test: Inhibition of colony formation in human PANC-1 cells in DMEM medium at 5 uM incubated for 10 days relative to control; type: functional; details: PANC-1, 240 h, time 10 day
[19] = target: T1, Serine/threonine-protein kinase AKT (Homo sapiens); test: Inhibition of Akt signaling in human PANC-1 cells assessed as reduction in mTOR […] phosphorylation in NDM medium at 10 uM incubated for 6 hrs by Western blot analysis; type: cell-based
PANC-1 [20] = test: Effect on […] protein expression in human PANC-1 cells in NDM medium at 1 to 10 uM incubated for 6 hrs by Western blot analysis; type: functional, cell-based; details: dose 1-10 µM

SMILES	IC50 (PANC-1 [1])	PC50 (PANC-1 [2])	Selectivity Index [3]	further results
CCO[C@H]1CCCC2=CC(=O)CC[C@@]21C	> 100 µM	>100 µM	–	–
C=C1C(F)(F)C[C@H]2[C@@H]3CCC4=CC(=O)CC[C@]4(C)[C@H]3CC[C@]12C	> 100 µM	14 µM	>7.1	–
C=C1C(=O)C[C@H]2[C@@H]3CC[C@H]4CC(=O)CC[C@]4(C)[C@H]3CC[C@]12C	3.5 µM	0.72 µM	4.9	inhibition at 3 µM (PANC-1 [4]): 97.7%; Activity (PANC-1 [5]): Non-Toxic; Activity (PANC-1 [6]): Non-Toxic; Activity (PANC-1 [7]): Active; Activity (PANC-1 [8]): Active; inhibition at 1 µM (PANC-1 [9]): > 50.9%; Activity (PANC-1 [10]): 70%; inhibition [11]: Active; Activity (PANC-1 [12]): 70%; Activity (PANC-1 [13]): 45%; inhibition [14]: Active; Activity (PANC-1 [15]): Active; Activity (PANC-1 [16]): 85%; Activity (PANC-1 [17]): Non-Toxic; inhibition at 5 µM (PANC-1 [18]): 100%; inhibition [19]: Active; Activity (PANC-1 [20]): Non-Toxic
C/C=C1/C(=O)C[C@H]2[C@@H]3CCC4=CC(=O)CC[C@]4(C)[C@H]3CC[C@]12C	–	Active	–	–
C=C1C(=O)C[C@H]2[C@@H]3CCC4=CC(=O)CC[C@]4(C)[C@H]3CC[C@]12C	–	1.6 µM	6.9	–
C[C@]12CC[C@H]3[C@@H](CCC4=CC(=O)CC[C@@]43C)[C@@H]1CC(=O)[C@@H]2CSCCO	100 µM	53 µM	–	–
C=C1C(=O)C[C@H]2[C@@H]3CC[C@H]4CCCC[C@]4(C)[C@H]3CC[C@]12C	3 µM	0.8 µM	3.8	–
COCO[C@@H]1C[C@H]2[C@@H]3CCC4=CC(=O)CC[C@]4(C)[C@H]3CC[C@]2(C)C1=C(F)F	29 µM	9.2 µM	3.2	–
C=C1[C@H](OCOC)C[C@H]2[C@@H]3CCC4=CC(=O)CC[C@]4(C)[C@H]3CC[C@]12C	100 µM	31 µM	3.2	–
C=C1[C@H](O)C[C@H]2[C@@H]3CCC4=CC(=O)CC[C@]4(C)[C@H]3CC[C@]12C	> 100 µM	57 µM	–	–
C[C@]12CCC(=O)C=C1CC[C@@H]1[C@@H]2CC[C@]2(C)C(=C(F)F)CC[C@@H]12	91 µM	5.2 µM	18	–
C/C=C1/CC[C@H]2[C@@H]3CCC4=CC(=O)CC[C@]4(C)[C@H]3CC[C@]12C	> 100 µM	3.2 µM	>31	–
CC(=O)O[C@H]1CCCC2=CC(=O)CC[C@@]21C	> 100 µM	>100 µM	–	–
C=C1CC[C@H]2[C@@H]3CCC4=CC(=O)CC[C@]4(C)[C@H]3CC[C@]12C	50 µM	3.5 µM	14	–
C[C@]12CCC(=O)C=C1CC[C@@H]1[C@@H]2CC[C@]2(C)C(=C(F)F)[C@H](O)C[C@@H]12	51 µM	18 µM	2.8	–
